From paper PMC9005681, “Use of AD Informer Set compounds to explore validity of novel targets in Alzheimer's disease pathology” (Alzheimer's & Dementia : Translational Research & Clinical …, 2022)

Assays:
cellular system = tested on: cellular system; parameters: method as in column References for potency and dosing (the 5th table c13); conditions: published data; References for potency and dosing; cited from earlier work
[1] = molecular target: T1, cloned human or rodent CNS receptors, channels, and transporters (PDSP panel) (Homo sapiens, UniProt P08172); test: PDSP GPCR panel primary binding assays at 10 μM; conditions: M2, primary assay
T1 construct: expressed in transfected cells
T1 sequence (P08172 1-466): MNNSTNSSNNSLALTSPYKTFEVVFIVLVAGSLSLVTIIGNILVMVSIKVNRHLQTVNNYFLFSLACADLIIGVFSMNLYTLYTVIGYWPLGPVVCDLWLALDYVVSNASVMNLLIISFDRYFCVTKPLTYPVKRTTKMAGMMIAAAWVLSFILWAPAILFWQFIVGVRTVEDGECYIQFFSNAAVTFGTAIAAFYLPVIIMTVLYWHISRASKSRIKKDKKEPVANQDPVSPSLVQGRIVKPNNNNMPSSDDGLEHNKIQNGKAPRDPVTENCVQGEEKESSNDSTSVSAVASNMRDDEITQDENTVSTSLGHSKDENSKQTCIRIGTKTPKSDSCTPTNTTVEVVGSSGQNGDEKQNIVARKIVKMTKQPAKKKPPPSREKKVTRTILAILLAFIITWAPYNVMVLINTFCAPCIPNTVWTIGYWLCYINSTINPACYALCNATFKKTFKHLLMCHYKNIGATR
Procedure, shortened: (§1)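 PDSP panel of 46–47 cloned human or rodent CNS receptors, channels and transporters; radioligand displacement by compound at 10 μM, in quadruplicate. Where average displacement exceeded 50%, secondary binding followed as 11-point dose-response in triplicate (none for H3, PBR or GABAA).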

[2] = molecular target: T2, cloned human or rodent CNS receptors, channels, and transporters (PDSP panel) (Homo sapiens, UniProt P34969); test: PDSP GPCR panel primary binding assays at 10 μM; conditions: Receptor 5-HT7A, primary assay, 10 μM
T2 construct: expressed in transfected cells
T2 sequence (P34969 whole entry): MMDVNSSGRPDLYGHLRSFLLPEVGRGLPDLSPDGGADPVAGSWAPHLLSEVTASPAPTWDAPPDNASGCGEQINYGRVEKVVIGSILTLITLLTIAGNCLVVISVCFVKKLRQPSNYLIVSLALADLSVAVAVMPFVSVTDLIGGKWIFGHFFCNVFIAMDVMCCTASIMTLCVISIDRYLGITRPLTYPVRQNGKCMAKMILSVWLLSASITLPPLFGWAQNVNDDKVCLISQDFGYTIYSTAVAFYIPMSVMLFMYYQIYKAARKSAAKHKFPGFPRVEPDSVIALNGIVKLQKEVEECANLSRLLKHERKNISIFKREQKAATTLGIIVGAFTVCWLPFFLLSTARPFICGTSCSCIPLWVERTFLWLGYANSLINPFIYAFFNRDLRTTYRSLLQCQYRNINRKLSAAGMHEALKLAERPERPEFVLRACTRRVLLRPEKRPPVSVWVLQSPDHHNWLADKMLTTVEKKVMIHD
Procedure, shortened: as §1

[3] = molecular target: T3, cloned human or rodent CNS receptors, channels, and transporters (PDSP panel) (Homo sapiens, UniProt P47898); test: PDSP GPCR panel primary binding assays at 10 μM; conditions: Receptor 5-HT5A, primary assay, 10 μM
T3 construct: expressed in transfected cells
T3 sequence (P47898 whole entry): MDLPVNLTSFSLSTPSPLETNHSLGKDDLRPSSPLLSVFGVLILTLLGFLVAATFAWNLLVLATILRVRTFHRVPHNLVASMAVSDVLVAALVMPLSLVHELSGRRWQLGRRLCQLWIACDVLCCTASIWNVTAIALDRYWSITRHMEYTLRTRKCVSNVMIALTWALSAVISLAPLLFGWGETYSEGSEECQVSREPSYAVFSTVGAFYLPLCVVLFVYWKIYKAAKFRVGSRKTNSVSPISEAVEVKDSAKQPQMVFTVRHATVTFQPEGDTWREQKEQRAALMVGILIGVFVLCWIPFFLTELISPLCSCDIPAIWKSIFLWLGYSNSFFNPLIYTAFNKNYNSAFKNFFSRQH
Procedure, shortened: as §1

[4] = molecular target: T4, cloned human or rodent CNS receptors, channels, and transporters (PDSP panel) (Homo sapiens, UniProt P35372); test: PDSP GPCR panel primary binding assays at 10 μM; conditions: Receptor MOR, primary assay, 10 μM
T4 construct: expressed in transfected cells
T4 sequence (P35372 whole entry): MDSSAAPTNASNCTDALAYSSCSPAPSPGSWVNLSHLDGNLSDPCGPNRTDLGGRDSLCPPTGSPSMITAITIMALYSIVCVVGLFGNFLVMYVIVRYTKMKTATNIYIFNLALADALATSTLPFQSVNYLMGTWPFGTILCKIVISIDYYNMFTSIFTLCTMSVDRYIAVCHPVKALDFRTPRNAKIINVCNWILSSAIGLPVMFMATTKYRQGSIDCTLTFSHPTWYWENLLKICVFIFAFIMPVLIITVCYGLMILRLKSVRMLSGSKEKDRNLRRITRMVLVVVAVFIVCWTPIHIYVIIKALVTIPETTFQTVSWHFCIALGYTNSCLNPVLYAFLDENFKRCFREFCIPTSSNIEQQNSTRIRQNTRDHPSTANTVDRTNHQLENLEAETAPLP
Procedure, shortened: as §1

[5] = molecular target: T5, cloned human or rodent CNS receptors, channels, and transporters (PDSP panel) (Homo sapiens, UniProt P28221); test: PDSP GPCR panel primary binding assays at 10 μM; conditions: Receptor 5-HT1D, primary assay, 10 μM
T5 construct: expressed in transfected cells
T5 sequence (P28221 whole entry): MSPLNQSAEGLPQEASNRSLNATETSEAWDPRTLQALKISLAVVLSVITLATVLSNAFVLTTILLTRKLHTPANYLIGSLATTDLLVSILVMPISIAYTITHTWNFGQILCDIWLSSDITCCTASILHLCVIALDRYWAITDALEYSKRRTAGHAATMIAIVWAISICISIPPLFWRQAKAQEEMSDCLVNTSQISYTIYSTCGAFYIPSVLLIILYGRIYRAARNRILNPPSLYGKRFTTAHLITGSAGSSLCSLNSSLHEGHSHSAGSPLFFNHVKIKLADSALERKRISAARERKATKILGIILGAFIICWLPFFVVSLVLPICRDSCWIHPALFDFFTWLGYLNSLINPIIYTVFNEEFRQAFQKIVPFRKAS
Procedure, shortened: as §1

[6] = molecular target: T6, cloned human or rodent CNS receptors, channels, and transporters (PDSP panel) (Homo sapiens, UniProt P25021); test: PDSP GPCR panel primary binding assays at 10 μM; conditions: H2, primary assay
T6 construct: expressed in transfected cells
T6 sequence (P25021 whole entry): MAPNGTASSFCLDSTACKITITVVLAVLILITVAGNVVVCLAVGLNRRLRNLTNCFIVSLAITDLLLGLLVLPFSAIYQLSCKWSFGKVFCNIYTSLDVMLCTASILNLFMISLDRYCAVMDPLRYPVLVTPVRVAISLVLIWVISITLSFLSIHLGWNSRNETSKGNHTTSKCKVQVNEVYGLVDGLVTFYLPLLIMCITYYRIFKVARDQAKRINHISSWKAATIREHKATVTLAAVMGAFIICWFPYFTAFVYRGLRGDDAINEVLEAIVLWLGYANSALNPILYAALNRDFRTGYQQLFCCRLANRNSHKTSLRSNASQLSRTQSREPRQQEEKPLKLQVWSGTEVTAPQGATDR
Procedure, shortened: as §1

[7] = molecular target: T7, cloned human or rodent CNS receptors, channels, and transporters (PDSP panel) (Homo sapiens, UniProt P41595); test: PDSP GPCR panel primary binding assays at 10 μM; conditions: Receptor 5-HT2B, primary assay, 10 μM
T7 construct: expressed in transfected cells
T7 sequence (P41595 whole entry): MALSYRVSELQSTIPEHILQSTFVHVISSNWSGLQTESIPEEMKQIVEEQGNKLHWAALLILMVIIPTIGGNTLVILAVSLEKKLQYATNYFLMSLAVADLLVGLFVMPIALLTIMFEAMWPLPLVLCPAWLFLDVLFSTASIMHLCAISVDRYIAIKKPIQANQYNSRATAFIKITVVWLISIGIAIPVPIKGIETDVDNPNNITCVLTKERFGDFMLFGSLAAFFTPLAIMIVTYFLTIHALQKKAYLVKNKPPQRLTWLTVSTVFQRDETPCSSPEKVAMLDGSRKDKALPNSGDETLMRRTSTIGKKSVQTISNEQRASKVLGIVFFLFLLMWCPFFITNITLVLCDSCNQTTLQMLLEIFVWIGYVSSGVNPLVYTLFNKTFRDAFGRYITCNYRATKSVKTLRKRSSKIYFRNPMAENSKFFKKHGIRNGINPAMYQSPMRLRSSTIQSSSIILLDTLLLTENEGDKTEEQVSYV
Procedure, shortened: as §1

[8] = molecular target: T8, cloned human or rodent CNS receptors, channels, and transporters (PDSP panel) (Homo sapiens, UniProt P23975); test: PDSP GPCR panel primary binding assays at 10 μM; conditions: primary assay
T8 construct: expressed in transfected cells
T8 sequence (P23975 whole entry): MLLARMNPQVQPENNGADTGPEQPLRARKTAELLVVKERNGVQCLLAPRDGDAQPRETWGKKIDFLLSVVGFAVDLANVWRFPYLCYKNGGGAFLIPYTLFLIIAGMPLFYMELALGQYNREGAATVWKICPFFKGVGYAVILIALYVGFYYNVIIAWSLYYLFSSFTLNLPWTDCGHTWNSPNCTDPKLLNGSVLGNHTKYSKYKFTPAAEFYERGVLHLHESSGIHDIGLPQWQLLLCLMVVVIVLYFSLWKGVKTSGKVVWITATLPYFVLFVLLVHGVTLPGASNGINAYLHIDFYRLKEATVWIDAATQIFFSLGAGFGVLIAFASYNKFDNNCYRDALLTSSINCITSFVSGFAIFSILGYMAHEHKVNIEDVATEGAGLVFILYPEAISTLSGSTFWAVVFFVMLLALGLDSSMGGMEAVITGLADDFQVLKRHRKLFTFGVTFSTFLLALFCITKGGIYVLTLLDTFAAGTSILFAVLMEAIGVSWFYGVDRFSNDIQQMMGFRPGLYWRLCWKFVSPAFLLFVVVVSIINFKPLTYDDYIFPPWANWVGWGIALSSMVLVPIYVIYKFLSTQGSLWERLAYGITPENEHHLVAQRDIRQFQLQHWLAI
Procedure, shortened: as §1

[9] = molecular target: T9, cloned human or rodent CNS receptors, channels, and transporters (PDSP panel) (Homo sapiens, UniProt P21728); test: PDSP GPCR panel primary binding assays at 10 μM; conditions: Receptor D1, primary assay, 10 μM
T9 construct: expressed in transfected cells
T9 sequence (P21728 whole entry): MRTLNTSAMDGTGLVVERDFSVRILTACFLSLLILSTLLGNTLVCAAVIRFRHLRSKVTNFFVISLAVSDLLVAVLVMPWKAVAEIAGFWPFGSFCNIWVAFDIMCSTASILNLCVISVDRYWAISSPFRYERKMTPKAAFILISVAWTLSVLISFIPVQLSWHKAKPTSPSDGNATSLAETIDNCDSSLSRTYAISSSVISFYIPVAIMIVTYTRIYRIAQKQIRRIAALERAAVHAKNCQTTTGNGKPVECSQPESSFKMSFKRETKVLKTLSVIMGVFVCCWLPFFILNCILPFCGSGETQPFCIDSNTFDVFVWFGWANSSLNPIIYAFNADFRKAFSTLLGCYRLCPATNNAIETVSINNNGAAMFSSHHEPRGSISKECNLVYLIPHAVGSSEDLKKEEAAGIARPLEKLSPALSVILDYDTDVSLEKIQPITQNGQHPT
Procedure, shortened: as §1

[10] = molecular target: T10, cloned human or rodent CNS receptors, channels, and transporters (PDSP panel) (Homo sapiens, UniProt P46098); test: PDSP GPCR panel primary binding assays at 10 μM; conditions: Receptor 5-HT3, primary assay, 10 μM
T10 construct: expressed in transfected cells
T10 sequence (P46098 24-478): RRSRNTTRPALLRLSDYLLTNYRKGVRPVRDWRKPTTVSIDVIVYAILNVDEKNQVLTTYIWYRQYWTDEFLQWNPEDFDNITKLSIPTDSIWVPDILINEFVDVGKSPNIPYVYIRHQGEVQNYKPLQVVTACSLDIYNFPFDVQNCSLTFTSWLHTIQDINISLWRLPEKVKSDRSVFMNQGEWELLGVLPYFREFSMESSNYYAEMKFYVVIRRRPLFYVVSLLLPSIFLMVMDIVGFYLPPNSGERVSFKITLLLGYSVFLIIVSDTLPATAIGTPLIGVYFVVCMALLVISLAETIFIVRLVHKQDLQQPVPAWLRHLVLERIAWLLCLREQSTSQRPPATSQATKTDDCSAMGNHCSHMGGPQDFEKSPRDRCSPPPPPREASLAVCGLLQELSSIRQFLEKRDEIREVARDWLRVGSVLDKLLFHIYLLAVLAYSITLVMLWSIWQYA
Procedure, shortened: as §1

[11] = cited from earlier work

Question: Which “Reported as cell active (<10 μM)” value (cellular system) does the source give for `O=c1oc2ccccc2cc1-c1cn2cc(Cc3ccc(F)cc3)sc2n1` [UNC10302680A, iMDK] here?
Answer: The value was “Y (Published data supports that the compound is active in a cellular system when dosed at 10 μM (Y/N))”.

Question: What about the Mean % ([1]; mean inhibition) of the same compound?
Answer: The Mean % was -8.2%.

Question: What about the “Inhibition 1” value ([1]; replicate 1) of the same compound?
Answer: The value was -12.5%.

Question: What about the “Inhibition 2” value ([1]; replicate 2) of the same compound?
Answer: Its value is -5.38%.

Question: What about the “Inhibition 3” value ([1]; replicate 3) of the same compound?
Answer: The value was -3.9%.

Question: What about the “Inhibition 4” value ([1]; replicate 4) of the same compound?
Answer: The value was -11.03%.

Question: And the “Inhibition 1” value [2]?
Answer: The value was 13.87%.

Question: And the “Inhibition 2” value [2]?
Answer: Its value is 2.87%.

Question: What about the “Inhibition 3” value [2] of the same compound?
Answer: Its value is -0.54%.

Question: What about the “Inhibition 4” value [2] of the same compound?
Answer: Its value is 21.31%.

Question: What about the Mean % ([2]; mean of Inhibition 1-4) of the same compound?
Answer: Its Mean % is 9.38%.

Question: And the “Inhibition 1” value [3]?
Answer: Its value is -14.99%.

Question: And the “Inhibition 2” value [3]?
Answer: Its value is -18.16%.

Question: And the “Inhibition 3” value [3]?
Answer: Its value is -6.28%.

Question: What about the “Inhibition 4” value [3] of the same compound?
Answer: Its value is -0.35%.

Question: And the Mean % ([3]; mean of Inhibition 1-4)?
Answer: Its Mean % is -9.95%.

Question: And the “Inhibition 1” value [4]?
Answer: The value was 9.07%.

Question: And the “Inhibition 2” value [4]?
Answer: Its value is 9.93%.

Question: What about the “Inhibition 3” value [4] of the same compound?
Answer: Its value is 2.65%.

Question: What about the “Inhibition 4” value [4] of the same compound?
Answer: Its value is 1.88%.

Question: What about the Mean % ([4]; mean of Inhibition 1-4) of the same compound?
Answer: Its Mean % is 5.88%.

Question: What about the “Inhibition 1” value [5] of the same compound?
Answer: The value was -3.85%.

Question: What about the “Inhibition 2” value [5] of the same compound?
Answer: The value was -18.84%.

Question: What about the “Inhibition 3” value [5] of the same compound?
Answer: Its value is 15.72%.

Question: What about the “Inhibition 4” value [5] of the same compound?
Answer: The value was -8.43%.

Question: And the Mean % ([5]; mean of Inhibition 1-4)?
Answer: Its Mean % is -3.85%.

Question: And the Mean % ([6]; mean inhibition)?
Answer: Its Mean % is 13.61%.

Question: What about the “Inhibition 1” value ([6]; replicate 1) of the same compound?
Answer: Its value is 32.28%.

Question: What about the “Inhibition 2” value ([6]; replicate 2) of the same compound?
Answer: The value was 15.29%.

Question: And the “Inhibition 3” value ([6]; replicate 3)?
Answer: The value was 9.61%.

Question: What about the “Inhibition 4” value ([6]; replicate 4) of the same compound?
Answer: Its value is -2.74%.

Question: And the “Inhibition 1” value [7]?
Answer: The value was 9.18%.

Question: And the “Inhibition 2” value [7]?
Answer: The value was -38.65%.

Question: What about the “Inhibition 3” value [7] of the same compound?
Answer: Its value is -23.13%.

Question: What about the “Inhibition 4” value [7] of the same compound?
Answer: The value was -31.52%.

Question: What about the Mean % ([7]; mean of Inhibition 1-4) of the same compound?
Answer: The Mean % was -21.03%.

Question: And the Mean % ([8]; NET, mean inhibition)?
Answer: Its Mean % is 3.1%.

Question: And the “Inhibition 1” value ([8]; NET, replicate 1)?
Answer: Its value is -7.15%.

Question: What about the “Inhibition 2” value ([8]; NET, replicate 2) of the same compound?
Answer: The value was -15.77%.

Question: And the “Inhibition 3” value ([8]; NET, replicate 3)?
Answer: The value was -1.08%.

Question: What about the “Inhibition 4” value ([8]; NET, replicate 4) of the same compound?
Answer: The value was 36.38%.

Question: What about the “Inhibition 1” value ([8]; Receptor NET, 10 μM) of the same compound?
Answer: Its value is 34.12%.

Question: And the “Inhibition 2” value ([8]; Receptor NET, 10 μM)?
Answer: The value was 0.12%.

Question: What about the “Inhibition 3” value ([8]; Receptor NET, 10 μM) of the same compound?
Answer: Its value is -3.41%.

Question: What about the “Inhibition 4” value ([8]; Receptor NET, 10 μM) of the same compound?
Answer: The value was -3.8%.

Question: What about the Mean % ([8]; Receptor NET, 10 μM, mean of Inhibition 1-4) of the same compound?
Answer: Its Mean % is 6.76%.

Question: What about the “Inhibition 1” value [9] of the same compound?
Answer: The value was 5.91%.

Question: What about the “Inhibition 2” value [9] of the same compound?
Answer: Its value is 9.31%.

Question: What about the “Inhibition 3” value [9] of the same compound?
Answer: The value was -0.89%.

Question: What about the “Inhibition 4” value [9] of the same compound?
Answer: Its value is -9.8%.

Question: And the Mean % ([9]; mean of Inhibition 1-4)?
Answer: Its Mean % is 1.13%.

Question: And the “Inhibition 1” value [10]?
Answer: Its value is 1.94%.

Question: And the “Inhibition 2” value [10]?
Answer: The value was 26.27%.

Question: What about the “Inhibition 3” value [10] of the same compound?
Answer: Its value is 17.25%.

Question: What about the “Inhibition 4” value [10] of the same compound?
Answer: Its value is 14.61%.

Question: And the Mean % ([10]; mean of Inhibition 1-4)?
Answer: The Mean % was 15.02%.

Question: And the Kinetic solubility ([11]; aqueous, neutral pH (7.4))?
Answer: Its Kinetic solubility is under 1.1 µM.

Question: And the “Kinetic solubility (in words)” value ([11]; kinetic solubility experiments)?
Answer: Its value is “poor kinetic solubility”.
